Molecular target: T1, S-ribosylhomocysteine lyase (Vibrio harveyi, UniProt B0LUE4)
T1 sequence (B0LUE4 whole entry): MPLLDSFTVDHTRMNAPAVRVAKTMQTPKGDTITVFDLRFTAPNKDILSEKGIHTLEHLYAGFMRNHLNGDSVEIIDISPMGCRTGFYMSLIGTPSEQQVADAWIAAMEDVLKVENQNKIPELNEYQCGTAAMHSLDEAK
Assay: LuxS enzyme inhibitors, dose response, mechanism study for V. harveyi quorum sensing inhibitors, biochemical, cell-free, homogeneous (AID 434944)

C=Cn1c(C(=O)O)ccc1-c1ccc(CC)cc1
EC50: 149 µM

COc1cc(NC(=O)CN2C(=O)NC(c3ccccc3)(c3ccccc3)C2=O)cc(OC)c1 [MLS001176525]
EC50: > 350 µM

CCc1ccc(S(=O)(=O)Nc2ccc(Br)cn2)cc1 [MLS001211346]
EC50: > 350 µM

CCCc1ccc(S(=O)(=O)N(C)S(=O)(=O)c2ccc(F)cc2)cc1 [N-(4-fluorophenyl)sulfonyl-N-methyl-4-propylbenzenesulfonamide]
EC50: > 350 µM

CN(C)S(=O)(=O)c1ccc(NC(=S)NC(=O)Cc2ccccc2)cc1 [N-[[4-(dimethylsulfamoyl)phenyl]carbamothioyl]-2-phenyl-ethanamide]
EC50: > 350 µM

Cc1cccc(NS(=O)(=O)c2ccc(Oc3ccccc3)cc2)n1 [SMR000071466]
EC50: > 350 µM

Cn1cnc(S(=O)(=O)Nc2ccc(OC(F)(F)F)cc2)c1 [SMR000314513]
EC50: > 350 µM
